In brackets after ≈: the same amount, converted by molar mass.
Key:
[1] = tested on: superoxide dismutase (SOD); assay: Increase of superoxide dismutase (SOD) activity in mouse brain cells; type: cell-based; details: 100 μg/ml
Protocol: (§1) ROS inhibitory effect of compounds was represented to the dose suppressing 50% of production of reactive oxygen compared to control. […] The activity of superoxide dismutase (SOD) was measured by using a kit acquired in Sigma.

[2] = tested on: mixed culture of nerve cells-glial cells; assay: Protecting effect on NMDA-induced nerve cell death (LDH release); type: cell-based, ICR mouse; details: 100 μM NMDA, LDH release after 24 hours
Protocol: Isolation and culture of nerve cells were performed by Choi's method (Choi, D. W. 1985, Neurosci. Lett., 58: 293-297). That is, the cortex was isolated in fetus ICR mouse that was 14 days pregnant, and then single cells were obtained from the tissue using pipette. The cells were aliquoted into 2×10^5/well density in a 24-well plate (Falcon) in which glial cells of cerebral cortex had been cultured in an incubator maintained at 37° C. with 5% CO2 for over 3 weeks. The culture medium was supplemented with MEM (minimum essential medium, Sigma), 2 mM glutamine, 21 mM glucose, 26.5 mM bicarbonate, 10% fetal bovine serum (FBS). In 3-5 days after aliquot, 10 μM Ara-C (cytosine arabinoside) was treated to suppress proliferation of neuroglia. And it was treated with 100 μM NMDA and 1 μg/mL or 2 μg/mL of each sample (compound) to induce the death of nerve cells due to excitable toxicity for 20 minutes, in 12-15 days after aliquot. Because of nerve cell death, lactate dehydrogenase (LDH) accumulated in proportion to the number of dead cells. In 24 hours after drug treatment, the amount of dehydrogenase (LDH) released to outside of cells was measured by using an […] measurement kit (CytoTox 96, Promega). After the reaction was completed, the change of absorbance depending on the amount of LDH was measured by using a microplate spectrophotometer.

[3] = tested on: pentylentetrazole (PTZ)-induced convulsion; assay: Anti-convulsant effect, pentylentetrazole (PTZ) test; type: in vivo; details: 10 mg/kg intraperitoneally, PTZ 80 mg/kg subcutaneously; for mortality rate / Induction percentage of convulsion: (animals/total); for mortality rate: negative control 70(17/23); for Induction percentage of convulsion: negative control 100(23/23); for Initiation time of convulsion: negative control 5.0 ± 0.7; for Duration of convulsion: negative control 46.7 ± 3.3
Protocol: An experiment was performed by the method of Ali et al. (Ali, A. et al. 2006, Pharmacological Reports, 58: 242-245). A 10 mg/kg dose of compound was intraperitoneally administered to identify the anti-convulsant effect and the effect was observed (Table 8). Researching the process of activity was performed by the Anti-epileptic Drug Development Program (ADD) of NIH during development of the anti-convulsant drug. One of the assessed items of anti-convulsant activity in the first step of this program is the pentylentetrazole (PTZ) test. […] After 10 mg/kg of the testing drug was administered, assessment was performed by estimating the initiation time of convulsion, duration until convulsion completely disappeared and mortality rate. It was assessed as having an anti-convulsant effect when a single episode of clonic spasm was not shown over 5 seconds on at least one of the 4 laboratory animals after PTZ administration.

mouse brain cells = assay: Inhibitory effect on ROS production in brain cells (DCF-DA, NMDA-induced); type: cell-based; details: 24 h; dose suppressing 50% of production of reactive oxygen compared to control; mouse brain cells; read-out: ROS inhibitory effect ID50
Protocol: Oxidative stress was measured to test inhibitory effects on the production of reactive oxygen species (ROS) by using DCF-DA, which is a fluorescent probe. Brain cells were obtained from brain cortex of mouse to prepare cell solution with 2×10^6 cells/ml. Each brain cell was treated with 11 μM of DCF-DA followed by reaction in 37° C., 5% CO2 incubator for an hour. After washing twice, Compound 3 was treated with a concentration of 125 μg/ml and 250 μg/ml. At the same time, 300 μM of NMDA was treated and it was incubated in 37° C., 5% CO2 incubator for 24 hours.
as §1

thoracic aorta of rats = assay: Relaxing effect on thoracic aorta contracted by phenylephrine (organ bath); set-up: species or system rats of SD species; details: Rattus norvegicus; 67 μg/mL; phenylephrine 0.5 μM; mean n = 3; read-out: Relaxation percentage
Source text: After male rats of SD species (250-300 g) were anesthetized by inhalation of ether, their thoracic aortas were extracted and put into a Krebs buffer (mM; NaCl 118, NaHCO3 27.3, KCl 4.8, MgSO4 1.2, KH2PO4 1.0, CaCl2 1.25, glucose 11.1). 2 mm of aortic ring was made under dissecting microscope and cultured in an organ bath to measure the tension of blood vessels. The organ bath was filled with Krebs buffer and saturated with 95% O2, 5% CO2 to maintain dissolved oxygen and physiological pH. Changing of tension was measured by a tension meter (Hugo-sachs, model K30) and recorded by physiological recorder (Coulbourn polygraph). The length of the blood vessels was increased step by step to make 1.0 g of basal tension for 90 minutes. The equilibrated blood vessel was contracted by phenylephrine (0.5 μM). When the contraction furrow reached equilibrium, compounds were added, followed by observation of relaxation response.

| Molecule | Increase of SOD activity, compared to control [1] | Inhibitory effect of cell death by NMDA-induced excitable neurotoxicity ([2]; 1 μg/ml compound) | Inhibitory effect of cell death by NMDA-induced excitable neurotoxicity ([2]; 2 μg/ml compound) | mortality rate [3] | Induction percentage of convulsion [3] | Initiation time of convulsion [3] | Duration of convulsion [3] | IC50 (mouse brain cells) | inhibition at 67 µg/mL (thoracic aorta of rats) |
| --- | --- | --- | --- | --- | --- | --- | --- | --- | --- |
| 3-[3-(4-{N-[3-(2,4-dioxo-1,4-dihydro-2H-quinazolin-3-yl)propyl]-N-benzylamino}butyl)-N-benzylamino]propyl-1H-quinazoline-2,4-dione [Compound 15] | 1.3 ± 3.1 | 22.4% | 22.3% | 83(5/6) % | 83(5/6) % | 25.7 ± 7.2 min | 34.3 ± 7.2 min | – | – |
| O=c1[nH]c2ccccc2c(=O)n1CCCCNCCCn1c(=O)[nH]c2ccccc2c1=O [Compound 7, 3-{4-[3-(2,4-dioxo-1,4-dihydro-2H-quinazolin-3-yl)propylamino]butyl}-1H-quinazoline-2,4-dione] | – | 26.0% | 39.7% | 67(4/6) % | 100(6/6) % | 3.1 ± 0.3 min | 42.9 ± 8.7 min | 17.7 ± 17.3 mg/L (≈ 40.6 µM) | 56.8% |
| O=C(NCCCNCCCCNCCCn1c(=O)[nH]c2ccccc2c1=O)c1ccc(O)cc1 [Compound 8, N-(3-{4-[3-(2,4-dioxo-1,4-dihydro-2H-quinazolin-3-yl)propylamino]butylamino}propyl)-4-hydroxybenzamide] | – | 20.0% | 28.2% | – | – | – | – | 103 ± 20.4 mg/L (≈ 220 µM) | 35.7% |
| CC(C)(C)OC(=O)N(CCCCNCCCn1c(=O)[nH]c2ccccc2c1=O)CCCn1c(=O)[nH]c2ccccc2c1=O [Compound 11, [3-(2,4-dioxo-1,4-dihydro-2H-quinazolin-3-yl)propyl]-{4-[3-(2,4-dioxo-1,4-dihydro-2H-quinazolin-3-yl)propylamino]butyl}carbamic Acid tert-butyl ester] | 2.3 ± 3.4 | 15.0% | – | 17(1/6) % | 100(6/6) % | 10.1 ± 4.9 min | 44.9 ± 5.8 min | – | 10.9% |
| CCOC(=O)N(CCCCN(CCCn1c(=O)[nH]c2ccccc2c1=O)C(=O)OCC)CCCn1c(=O)[nH]c2ccccc2c1=O [Compound 16, [3-(2,4-dioxo-1,4-dihydro-2H-quinazolin-3-yl)propyl]-(4-{[3-(2,4-dioxo-1,4-dihydro-2H-quinazolin-3-yl)propyl]ethoxycarbonylamino}butyl)carbamic Acid ethyl ester] | 7.5 ± 2.3 | 18.1% | – | 0(0/6) % | 100(6/6) % | 7.6 ± 1.7 min | 6.4 ± 2.3 min | – | – |
| CC(C)(C)OC(=O)N(CCCCN(CCCn1c(=O)[nH]c2ccccc2c1=O)C(=O)OC(C)(C)C)CCCn1c(=O)[nH]c2ccccc2c1=O [Compound 17, (4-{tert-butoxycarbonyl-[3-(2,4-dioxo-1,4-dihydro-2H-quinazolin-3-yl)propyl]amino}butyl)-[3-(2,4-dioxo-1,4-dihydro-2H-quinazolin-3-yl)propyl]carbamic acid tert-butyl ester] | 0.3 ± 0.0 | 21.0% | 10.7% | – | – | – | – | – | 51.7% |
| CC(=O)N(CCCCN(CCCn1c(=O)[nH]c2ccccc2c1=O)C(C)=O)CCCNC(=O)c1ccc(O)cc1 [Compound 21, N-{3-[acetyl-(4-{acetyl-[3-(2,4-dioxo-1,4-dihydro-2H-quinazolin-3-yl)propyl]amino}butyl)amino]propyl}-4-hydroxybenzamide] | −0.3 ± 3.7 | 19.6% | 16.6% | 0(0/6) % | 67(4/6) % | 22.2 ± 11.9 min | 6.7 ± 3.1 min | – | 2.6% |
| Cn1c(=O)n(CCCN(CCCCN(CCCn2c(=O)c3ccccc3n(C)c2=O)C(=O)OC(C)(C)C)C(=O)OC(C)(C)C)c(=O)c2ccccc21 [Compound 26, (4-{tert-butoxycarbonyl-[3-(1-methyl-2,4-dioxo-1,4-dihydro-2H-quinazolin-3-yl)propyl]amino}butyl)-[3-(1-methyl-2,4-dioxo-1,4-dihydro-2H-quinazolin-3-yl)propyl]carbamic acid tert-butyl ester] | 0.7 ± 5.7 | 8.8% | 29.7% | 50(3/6) % | 83(5/6) % | 15.4 ± 9.0 min | 33.0 ± 9.5 min | – | 3.7% |
| O=C1c2ccccc2C(=O)N1CCCNCCCCNCCCn1c(=O)[nH]c2ccccc2c1=O [Compound 28, 3-(3-{4-[3-(1,3-dioxo-1,3-dihydro-isoindole-2-yl)propylamino]butylamino}propyl)-1H-quinazoline-2,4-dione] | – | 23.1% | 22.4% | 0(0/6) % | 100(6/6) % | 4.8 ± 2.2 min | 26.9 ± 6.5 min | 30.9 ± 13.7 mg/L (≈ 64.7 µM) | 8.3% |
| O=C(N(CCCCNCCCn1c(=O)[nH]c2ccccc2c1=O)CCCn1c(=O)[nH]c2ccccc2c1=O)C(F)(F)F [Compound 36, N-[3-(2,4-dioxo-1,4-dihydro-2H-quinazolin-3-yl)propyl]-N-{4-[3-(2,4-dioxo-1,4-dihydro-2H-quinazolin-3-yl)propylamino]butyl}-2,2,2-trifluoroacetamide] | 4.9 ± 1.2 | 32.2% | 18.4% | 33(2/6) % | 100(6/6) % | 8.9 ± 2.3 min | 25.1 ± 9.7 min | – | – |

From patent US8404696B2, “Quinazoline-2,4-dione derivative, and medical compositions for the prophylaxis and treatment of cranial nerve disease containing the same” (Shin Poong Pharmaceutical Co., Ltd., priority 2008, dated 2013)
